Source: ChEMBL document CHEMBL5247653, “Discovery of Clinical Candidate ACT-777991, a Potent CXCR3 Antagonist for Antigen-Driven and Inflammatory Pathologies” (J Med Chem, 2023)

How the values were obtained:
[1] = biological target: T1, C-X-C chemokine receptor type 3 (Homo sapiens, UniProt P49682); test: Antagonist activity at CXCR3 (unknown origin) in human T cells in venous blood assessed as receptor internalization incubated for 30 mins in presence of CXCL10 by flow cytometric analysis; type: cell-based, T cell
T1 sequence (P49682 whole entry): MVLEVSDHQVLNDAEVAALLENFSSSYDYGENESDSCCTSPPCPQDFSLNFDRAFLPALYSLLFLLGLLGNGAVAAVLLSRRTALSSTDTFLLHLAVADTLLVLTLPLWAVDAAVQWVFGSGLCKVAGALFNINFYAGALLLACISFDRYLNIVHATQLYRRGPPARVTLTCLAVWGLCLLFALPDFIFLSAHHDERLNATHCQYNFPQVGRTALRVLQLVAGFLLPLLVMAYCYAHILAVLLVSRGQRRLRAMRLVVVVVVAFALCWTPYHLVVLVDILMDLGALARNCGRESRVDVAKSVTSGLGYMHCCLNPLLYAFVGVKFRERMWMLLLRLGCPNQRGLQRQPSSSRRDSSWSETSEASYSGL

[2] = biological target: Voltage-gated inwardly rectifying potassium channel KCNH2 (Homo sapiens, UniProt Q12809); test: Inhibition of human ERG stably expressed in CHO cells at -80 mV holding voltage by automated QPatch electrophysiological assay; type: toxicity, cell-based
Voltage-gated inwardly rectifying potassium channel KCNH2, sequence (Q12809 whole entry): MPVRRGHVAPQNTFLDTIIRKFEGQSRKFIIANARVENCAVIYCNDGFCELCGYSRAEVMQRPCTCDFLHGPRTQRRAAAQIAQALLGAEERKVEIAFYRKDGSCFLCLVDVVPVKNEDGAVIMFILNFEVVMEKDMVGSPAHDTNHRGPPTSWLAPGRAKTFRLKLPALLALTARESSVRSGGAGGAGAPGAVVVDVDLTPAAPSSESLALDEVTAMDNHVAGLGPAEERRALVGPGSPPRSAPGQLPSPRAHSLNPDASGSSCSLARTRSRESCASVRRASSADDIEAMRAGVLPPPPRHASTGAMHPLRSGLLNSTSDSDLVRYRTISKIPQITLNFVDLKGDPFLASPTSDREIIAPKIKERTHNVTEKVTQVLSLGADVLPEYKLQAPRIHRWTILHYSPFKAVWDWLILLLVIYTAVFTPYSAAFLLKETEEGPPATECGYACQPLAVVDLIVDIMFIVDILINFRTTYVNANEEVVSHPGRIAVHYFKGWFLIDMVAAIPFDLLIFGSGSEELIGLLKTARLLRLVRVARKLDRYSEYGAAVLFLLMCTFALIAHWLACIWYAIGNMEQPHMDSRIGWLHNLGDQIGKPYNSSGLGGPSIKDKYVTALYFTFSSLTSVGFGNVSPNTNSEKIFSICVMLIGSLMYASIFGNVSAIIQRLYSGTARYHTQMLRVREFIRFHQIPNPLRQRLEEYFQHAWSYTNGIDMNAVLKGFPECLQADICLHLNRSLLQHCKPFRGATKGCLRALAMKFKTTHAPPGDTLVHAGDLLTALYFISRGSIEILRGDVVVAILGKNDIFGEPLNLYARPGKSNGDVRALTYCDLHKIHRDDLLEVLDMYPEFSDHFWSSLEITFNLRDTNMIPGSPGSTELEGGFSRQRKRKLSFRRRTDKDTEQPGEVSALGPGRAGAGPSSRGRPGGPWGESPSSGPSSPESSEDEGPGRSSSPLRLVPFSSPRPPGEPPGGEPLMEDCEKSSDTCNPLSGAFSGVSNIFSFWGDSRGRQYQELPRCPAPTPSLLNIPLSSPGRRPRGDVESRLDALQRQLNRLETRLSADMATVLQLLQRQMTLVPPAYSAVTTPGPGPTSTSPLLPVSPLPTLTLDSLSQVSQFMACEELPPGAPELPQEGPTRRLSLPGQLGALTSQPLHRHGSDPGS

[3] = Metabolic stability in dog liver microsomes assessed as intrinsic clearance at 1 uM and measured upto 15 mins in presence of NADPH regenerating system by LC-MS/MS analysis; type: ADME, Canis lupus familiaris, Microsome; details: read-out: CLH
CYP2D6 = CYP2D6 (Homo sapiens, UniProt P10635); test: […] recombinant human CYP2D6 mediated drug metabolism in human liver microsomes assessed as intrinsic clearance at 1 uM incubated for 45 mins in presence of NADPH regenerating system by LC-MS/MS analysis; type: ADME, Microsome; details: recombinant human CYP2D6, read-out: CLH
CYP2D6, sequence (P10635 whole entry): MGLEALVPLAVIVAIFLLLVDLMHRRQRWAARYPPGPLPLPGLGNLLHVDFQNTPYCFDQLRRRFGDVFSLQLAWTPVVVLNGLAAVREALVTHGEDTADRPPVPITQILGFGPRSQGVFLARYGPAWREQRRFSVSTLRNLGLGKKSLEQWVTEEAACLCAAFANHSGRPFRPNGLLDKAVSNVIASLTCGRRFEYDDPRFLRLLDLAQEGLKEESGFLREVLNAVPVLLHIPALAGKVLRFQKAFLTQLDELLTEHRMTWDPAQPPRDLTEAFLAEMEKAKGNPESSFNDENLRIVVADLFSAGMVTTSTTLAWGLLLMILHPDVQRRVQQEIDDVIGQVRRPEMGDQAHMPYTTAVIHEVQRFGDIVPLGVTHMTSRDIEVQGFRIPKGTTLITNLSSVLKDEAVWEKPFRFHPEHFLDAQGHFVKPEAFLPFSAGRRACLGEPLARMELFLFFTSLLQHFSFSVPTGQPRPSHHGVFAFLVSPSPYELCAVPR

[4] = Metabolic stability in rat hepatocytes assessed as intrinsic clearance per 10^6 cells at 1 uM by LC-MS/MS analysis; type: ADME, cell-based, Hepatocyte
[5] = Protein binding in dog plasma assessed as fraction unbound at 1 uM incubated for 6 hrs by rapid equilibrium dialysis based LC-MS/MS analysis; type: ADME, cell-free, Canis lupus familiaris
[6] = Metabolic stability in rat liver microsomes assessed as intrinsic clearance at 1 uM and measured upto 15 mins in presence of NADPH regenerating system by LC-MS/MS analysis; type: ADME, Microsome; details: read-out: CLH
[7] = Total clearance in Wistar rat plasma at 0.5 mg/kg, iv; type: ADME, organism-based
[8] = Drug excretion in urine of Wistar rat assessed as unchanged drug at 3 mg/kg, iv; type: ADME, organism-based; details: read-out: Drug excretion
[9] = Total clearance in Beagle dog plasma at 1 mg/kg, iv; type: ADME, organism-based, Canis lupus familiaris
[10] = Metabolic stability in human liver microsomes assessed as intrinsic clearance at 1 uM and measured upto 15 mins in presence of NADPH regenerating system by LC-MS/MS analysis; type: ADME, Microsome; details: read-out: CLH
[11] = Unbound clearance in Wistar rat plasma at 0.5 mg/kg, iv; type: ADME, organism-based; details: in vivo
[12] = Lipophilicity, log D of compound; type: physicochemical; details: octanol/water
[13] = Metabolic stability in human hepatocytes assessed as intrinsic clearance per 10^6 cells at 1 uM by LC-MS/MS analysis; type: ADME, cell-based, Hepatocyte
[14] = Unbound clearance in Beagle dog plasma at 1 mg/kg, iv; type: ADME, organism-based, Canis lupus familiaris; details: in vivo
[15] = Metabolic stability in dog hepatocytes assessed as intrinsic clearance per 10^6 cells at 1 uM by LC-MS/MS analysis; type: ADME, cell-based, Canis lupus familiaris, Hepatocyte
CYP3A4 = CYP3A4 (Homo sapiens, UniProt P08684); test: […] recombinant human CYP3A4 mediated drug metabolism in human liver microsomes assessed as intrinsic clearance at 1 uM incubated for 45 mins in presence of NADPH regenerating system by LC-MS/MS analysis; type: ADME, Microsome; details: read-out: CLH
CYP3A4, sequence (P08684 whole entry): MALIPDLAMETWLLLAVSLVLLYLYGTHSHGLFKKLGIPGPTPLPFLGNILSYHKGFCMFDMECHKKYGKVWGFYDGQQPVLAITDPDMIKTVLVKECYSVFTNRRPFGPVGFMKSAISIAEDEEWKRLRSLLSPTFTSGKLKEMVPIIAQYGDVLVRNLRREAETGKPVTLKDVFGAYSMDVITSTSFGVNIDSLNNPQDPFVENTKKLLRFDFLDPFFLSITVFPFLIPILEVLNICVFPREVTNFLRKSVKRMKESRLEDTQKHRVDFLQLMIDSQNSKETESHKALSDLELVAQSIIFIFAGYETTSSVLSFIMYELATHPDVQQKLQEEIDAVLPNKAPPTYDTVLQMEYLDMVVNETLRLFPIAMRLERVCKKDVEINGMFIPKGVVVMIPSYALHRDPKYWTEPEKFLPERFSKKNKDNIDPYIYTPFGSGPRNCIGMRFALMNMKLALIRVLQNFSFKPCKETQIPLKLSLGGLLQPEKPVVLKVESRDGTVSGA

[16] = Protein binding in human plasma assessed as fraction unbound at 1 uM incubated for 6 hrs by rapid equilibrium dialysis based LC-MS/MS analysis; type: ADME, cell-free
[17] = Protein binding in rat plasma assessed as fraction unbound at 1 uM incubated for 6 hrs by rapid equilibrium dialysis based LC-MS/MS analysis; type: ADME, cell-free

| Compound | IC50 [1] [nM] | IC50 [2] [nM] | microsomal CLint at 1 µM [10] [µL/min/mg] | other results |
| --- | --- | --- | --- | --- |
| Cc1ncn(CC(=O)N2CCN(c3sc(C(F)(F)F)nc3-c3cnc(C(F)(F)F)nc3)C[C@@H]2CO)n1 | 273 | > 60000 |  |  |
| Cc1ccn(CC(=O)N2CCN(c3sc(C(F)(F)F)nc3-c3cnc(C(F)(F)F)nc3)C[C@@H]2CO)n1 | 74.6 | 21000 | < 10 | microsomal CLint at 1 µM [3]: 16 µL/min/mg; microsomal CLint at 1 µM (CYP2D6): 0.41 µL/min/mg; CLH [4]: 2.8 µL/min/mg; fraction unbound at 6 h, 1 µM [5]: 0.22; microsomal CLint at 1 µM [6]: 13 µL/min/mg; clearance [7]: 7.1 mL/min/kg; dose excreted [8]: 1%; clearance [9]: 22 mL/min/kg; CL free [11]: 710 mL/min/kg; logD [12]: 3; CLH [13]: < 2 µL/min/mg; CL free [14]: 100 mL/min/kg; CLH [15]: 2.4 µL/min/mg; microsomal CLint at 1 µM (CYP3A4): 1.18 µL/min/mg; fraction unbound at 6 h, 1 µM [16]: 0.11; fraction unbound at 6 h, 1 µM [17]: 0.01 |
| Cc1ncnn1CC(=O)N1CCN(c2sc(C(F)(F)F)nc2-c2cnc(C(F)(F)F)nc2)C[C@H]1C | 477 | 16000 |  |  |
| C[C@@H]1CN(c2sc(C(F)(F)F)nc2-c2cnc(C(F)(F)F)nc2)CCN1C(=O)Cn1cnc(C#N)n1 | 1320 | 2600 |  |  |
| Cc1ccn(CC(=O)N2CCN(c3sc(C(F)(F)F)nc3-c3cnc(C(F)(F)F)nc3)C[C@@H]2CCO)n1 | 143 | 12000 | 23 | microsomal CLint at 1 µM (CYP2D6): 0.37 µL/min/mg; microsomal CLint at 1 µM (CYP3A4): 0.56 µL/min/mg |
| CC(O)c1ncn(CC(=O)N2CCN(c3sc(C(F)(F)F)nc3-c3cnc(C(F)(F)F)nc3)C[C@H]2C)n1 (stereo not given in full) | 356 | > 60000 |  |  |
| CCc1ncn(CC(=O)N2CCN(c3sc(C(F)(F)F)nc3-c3cnc(C(F)(F)F)nc3)C[C@@H]2CO)n1 | 82 | > 60000 | < 10 | microsomal CLint at 1 µM (CYP2D6): 0.13 µL/min/mg; microsomal CLint at 1 µM (CYP3A4): 0.27 µL/min/mg |
| Cc1ccn(CC(=O)N2CCN(c3sc(C(F)(F)F)nc3-c3cnc(C(F)(F)F)nc3)C[C@H]2CO)n1 | 53.2 | 13000 | < 10 | microsomal CLint at 1 µM (CYP2D6): 0.41 µL/min/mg; microsomal CLint at 1 µM (CYP3A4): 0.72 µL/min/mg |
| O=C(Cn1cnc(C2CC2)n1)N1CCN(c2sc(C(F)(F)F)nc2-c2cnc(C(F)(F)F)nc2)C[C@H]1CCO | 59.1 | 7300 | 12 |  |
| COCc1ncn(CC(=O)N2CCN(c3sc(C(F)(F)F)nc3-c3cnc(C(F)(F)F)nc3)C[C@H]2C)n1 | 440 | 18000 |  |  |
| Cc1ccn(CC(=O)N2CCN(c3sc(C(F)(F)F)nc3-c3cnc(C(F)(F)F)nc3)C[C@H]2C)n1 | 56.4 | 5100 |  | logD [12]: 3.4 |
| CCc1ccn(CC(=O)N2CCN(c3sc(C(F)(F)F)nc3-c3cnc(C(F)(F)F)nc3)C[C@H]2CCO)n1 | 24.9 | 2900 | 112 |  |
| Cc1ncn(CC(=O)N2CCN(c3sc(C(F)(F)F)nc3-c3cnc(C(F)(F)F)nc3)C[C@H]2C)n1 | 144 | 17000 |  | logD [12]: 2.7 |
| CCc1nc(C)n(CC(=O)N2CCN(c3sc(C(F)(F)F)nc3-c3cnc(C(F)(F)F)nc3)C[C@H]2C)n1 | 483 | 8700 |  |  |
| Cc1ncn(CC(=O)N2CCN(c3sc(C(F)(F)F)nc3-c3cnc(C(F)(F)F)nc3)C[C@@H]2CCO)n1 | 643 | > 60000 | < 10 |  |
| CC(C)c1ncn(CC(=O)N2CCN(c3sc(C(F)(F)F)nc3-c3cnc(C(F)(F)F)nc3)C[C@@H]2CCO)n1 | 165 | 19000 | 22 | microsomal CLint at 1 µM (CYP2D6): 0.28 µL/min/mg; microsomal CLint at 1 µM (CYP3A4): 1.9 µL/min/mg |
| CCc1ncn(CC(=O)N2CCN(c3sc(C(F)(F)F)nc3-c3cnc(C(F)(F)F)nc3)C[C@H]2CO)n1 | 208 | 52000 | < 10 | logD [12]: 2.6 |
